Results: PMC6823631 (Journal of immunology (Baltimore, Md. : 1950), 2019)
Blank lines part the entries; values can stand above or below the compound they belong to.

What was measured:
Test in all cases: fluorescence quenching titration of antibody tryptophan
IgE = type: binding
[1] = biological target: penicillin G specific IgG (IgG^Pen, monoclonal antibody clone P2B9); type: binding, Mus musculus
[2] = biological target: anti-dansyl IgE (IgE^dansyl, clone 27-74); type: binding

- Kd (IgE): 1.8 ± 0.3 µM
Compound: O=C(O)Cc1ccc2ccccc2c1 [Napht, 2-naphteleneacetic acid]

- Kd [1]: 20 ± 4 µM
Compound: Benzylpenicilloyl

- Kd [2]: 0.0299 ± 0.01 µM
Compound: dansyl
